Non-standard residues stand in square brackets, D forms with d. No end group written: not given here.
Assays:
EphB4 and Crk1 (MAPK14) = test: EphB4 and Crk1 phosphorylation in A2780cp20 cells (IP/immunoblot); assay type: cell-based, human; conditions: 50 nM (BIDEN-AP equivalent), 24 h after 16 h serum-free (Fig. S7A)
Text: Next, we determined the phosphorylation of EphB4 and its downstream adaptor protein Crk1 (MAPK14) in lysates from human A2780cp20 ovarian cancer cells by immunoprecipitation with anti-EphB4 and anti-Crk1 antibodies followed by immunoblotting with phospho-specific antibodies. […] In comparison, Alexa647-labeled antagonist TNYL-RAW was excluded.
Figure 2 BIDEN-AP acts as an EphB4 agonist. (A) BIDEN-AP induced phosphorylation of EphB4 and the associated MAPK14 (Crk1). […] The uncropped blots are presented in Supplemental Figure 11. (B) BIDEN-AP inhibited A2780cp20 cell invasion compared to untreated controls (CTL). A modified Boyden transwell chamber coated with Matrigel was used. Representative data from three independent experiments using A2780cp20 cells are presented. Each experiment was repeated in triplicate. Data are shown as mean ± SD. ***p < 0.001 by unpaired, two-sided Student t-test. […]
calculated as Koff/Kon. […]
The capacity of BIDEN-AP to inhibit the binding of EFNB2 to EphB4 was assessed in a competitive binding assay. […] After each injection, the signal from the control flow cell was subtracted and the relative amount of EphB4 bound to EFNB2-Fc was recorded as the net response over the pre-injection baseline level. […]
The protein concentrations were determined by using a BCA Protein Assay Reagent kit (Pierce Biotechnology, Rockford, IL). […]

[1] = Transmission electron microscopy particle size; assay type: physicochemical; conditions: transmission electron microscopy (Fig. 3C)
Protocol: examined with a JEM 1010 transmission electron microscope (JEOL USA, Inc., Peabody, MA) at an accelerating voltage of 80 kV. Digital images were obtained using the AMT Imaging System (Advanced Microscopy Techniques Corp., Danvers, MA).
Surface plasmon resonance (SPR) binding and competition assays. A stock solution of EphB4 in PBS (100 µg/mL) was diluted to 25 µg/mL with 10 mM sodium acetate buffer (pH 4.5) and immobilized to CM5 sensor chips using the amine coupling reaction according to manufacturer-provided procedures (BIACore). Briefly, the surfaces of the chips in flow cells (FC)- 1 and FC-2 were activated by exposing chips to a mixture of 200 mM N-ethyl-N’- dimethylaminopropyl carbodiimide and 50 mM N-hydroxysuccinimide for 7 min. FC-1 was used as a reference surface and was directly deactivated by injecting 1 M ethanolamine at pH 8.5 for 7 min. […]
Binding assays were performed in duplicate at 25°C in HBSEP running buffer. […] Thus, all analyzed samples, including a sample of the running buffer, were additionally injected onto an uncoated reference surface. The association rate (Kon) and dissociation rate (Koff) were calculated by fitting binding chromatogram data using the BIACore evaluation software with a 1:1 Langmuir binding model. […]

Substance: CCPM-BIDEN-AP: nanoconjugate of BIDEN-AP with core-crosslinked polymeric micelles (CCPM) (TN[dY]LFSPNGPIARAW; also: conjugated to core-crosslinked polymeric micelles (CCPM))
- EphB4 and Crk1 phosphorylation in vitro (agonist activity) (EphB4 and Crk1 (MAPK14)): potent agonist activity
- mean diameter [1]: 24 ± 3 nm
